Experimental data from US20090298864A1, “Methods for Treating Mild Cognitive Impairment” (The Trustees of Columbia University in the City of New York, priority 2005, published 2009).
Entries after “also recorded” stand apart in the source; their conditions may differ.

Experiments:
WT mice = test: Contextual fear learning (freezing) in WT control mice; format: in vivo, mouse; conditions: rolipram 0.3 mg/kg vs vehicle, freezing measured 24 hours after training, FIG. 1
Protocol: (§1) The effect of rolipram on contextual fear learning in APP mice was determined according to the methods set forth in Gong et al., J Clin Invest. 114(11):1624-34 (2004), which are described briefly as follows:
(§2) Three to five month old single transgenic APP and WT mice were separated into four groups: APP mice treated with vehicle (“APP control group”), APP mice treated with rolipram at 0.3 mg/kg (“APP rolipram group”), WT mice treated with vehicle (“control vehicle group”), and WT mice treated with rolipram at 0.3 mg/kg (“control rolipram group”). 30 minutes after treatment with either vehicle or rolipram, the mice were placed in a conditioning chamber and subjected to a series of electrical shocks to the feet. Animal behavior was evaluated for three types of response to the shocks (flinching, jumping and screaming) and thresholds for various types of responses were determined for each animal
(§3) Mice were placed in the conditioning chamber for about 2 minutes, then an auditory tone was given for about 30 seconds. During the last two seconds of the tone, the mice were given a foot shock. The mice were left in the conditioning chamber for about 30 seconds, then were returned to their home cages. […]
(§4) To evaluate contextual fear learning, freezing was measured for 5 consecutive minutes in the conditioning chamber 24 hours after training.

APP mice = test: Contextual fear learning (freezing) in APP mouse model of mild cognitive impairment; format: in vivo; conditions: single transgenic APP mice, 3-5 months old; rolipram 0.3 mg/kg vs vehicle; freezing measured 24 hours after training; FIG. 1
Protocol: as §1, §2, §3, §4

[1] = test system: mouse model of Alzheimer's disease; conditions: brief treatment of a mouse model of Alzheimer's disease; cited from earlier work

## COc1ccc(C2CNC(=O)C2)cc1OC1CCCC1 (stereo not drawn) [rolipram]
WT mice
  freezing responses in the contextual fear conditioning test: no significant difference
APP mice
  freezing in the contextual fear conditioning test (contextual fear learning): much higher incidence of freezing; also recorded: improved contextual fear learning
[1]
  memory (long-term potential and contextual learning): improves memory in both long-term potential and contextual learning
